# Measurements as given in PubChem BioAssay AID1918958 (Molecular Pharmacology Branch, DTP, NCI, 2023).
# pIC50: −log10 of the molar value.
# Tested on: NCI-H196 complex spheroid viability
# Assay: Anticancer human tumor NCI-H196 cell line growth inhibition [LSD1];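 also: spheroids exposed to agents for 7 days before readout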;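 as to viability, T/C: 100% = DMSO vehicle control viability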
# Conditions: for pIC50: curve of first compound; for viability, T/C: stronger effect = lower value
# From the text: Multicellular complex tumor spheroid response to LSD1 Inhibitor Iadademstat in combination with a variety of drugs and investigational agents in selected tumor cell lines
# The current study was undertaken to assess response to LSD1 inhibitors in combination with standard-of-care drugs and investigational agents in solid tumor complex spheroid models as well as in the K-562 leukemia. Complex spheroids include a stromal component modeled by human endothelial cells (HUVEC) and fibroblasts modeled by human mesenchymal stem cells (MSCs). The concentration ranges selected for each drug and investigational agent were based upon clinically achievable concentrations if the clinical Cmax of the agent was known.
# Compounds. The drugs and investigational agents used in this study are listed on Table 1. All of the agents used, including staurosporine (NSC755774) and gemcitabine (NSC613327), were obtained from the Developmental Therapeutics Program, NCI. FDA-approved anticancer drugs are available from the NCI at http://dtp.nci.nih.gov/branches/dscb/oncology_drugset_explanation.html. Drugs and investigational agents were >95% pure by proton nuclear magnetic resonance (NMR) and liquid chromatography/mass spectrometry (LC/MS). Stock solutions were prepared at 400x in DMSO, stored at -70 degrees C, and diluted in fresh medium prior to their use. The final concentration of DMSO in cell culture wells never exceeded 0.25% (v/v). The FDA-approved anticancer drug set is available from the Developmental Therapeutics Program at https://dtp.cancer.gov/organization/dscb/obtaining/available_plates.htm. All drugs and investigational agents were tested over a range starting from a high concentration at or near the clinical Cmax and decreasing in half-log increments. If the clinical Cmax for an agent had not been determined, the highest concentration tested was 10 microM.
# Cell Lines. The patient-derived cancer cell (PDC) lines: 292921-168-R-J2-PDC, K24384-001-R-PDC, and 521955-158-R2-J5-PDC pancreatic carcinomas, 556581-035-R-J1 ovarian carcinoma, 324938-238-R-J1-PDC, 855422-203-R-J1-PDC and 883617-216-R-J1-PDC urothelial bladder carcinomas, 743489-274-T-PDC renal cell carcinoma, 138582-R-J1 Merkel cell tumor, K60290-347-R-J1 and K57222-313-R-J1-PDC glioblastomas, 653999-131-R-J2-PDC, LG0703-F948-PDC, and 349418-098-R-PDC non-small cell lung carcinomas, 885512-296-R-J2-PDC, 171881-019-R-J1-PDC breast carcinomas and 186277-243-T-J2-PDC and 233499-124-R-J2-PDC colon carcinomas were obtained from the NCI Patient-Derived Models Repository (PDMR, https://pdmr.cancer.gov). The established cell lines NCI/ADR-RES (RRID:CVCL_14520 and OVCAR-5 (RRID:CVCL_1628) ovarian carcinomas, 786-O (RRID:CVCL_1051) and A498 (RRID:CVCL_A498) renal cell carcinoma, NCI-H211 (ATCC, cat. CRL-5824; RRID:CVCL_1529), NCI-H196 (ATCC, cat. CRL-5823, RRID:CVCL_1509), SW 1271 (ATCC, cat. CRL-2177, RRID:CVCL_1716) and NCI-H1876 (ATCC, cat. CRL-5902, RRID:CVCL_1503) small cell lung carcinomas, MDA-MB-231 (RRID:CVCL_0062) and MDA-MB-468 (RRID:CVCL_0419)breast carcinomas (10-12). Pooled donor human umbilical vein endothelial cells (HUVEC, Lonza, cat. CC-2519) and human mesenchymal stem cells (hMSC, Lonza, cat. PT-2501) were purchased from Lonza (Walkersville, MD).
# Cell Culture. All cells were maintained in an incubator at 37 degrees C and 5% CO2 with 95% humidity. The PDC lines were cultured according to standard operating procedures established by the NCI PDMR (https://pdmr.cancer.gov). Briefly all PDCs were thawed and cultured in Matrigel-coated flasks prepared with a working solution of 1X Ham's F-12 nutrient mix, without supplementation (Invitrogen, Waltham, MA, cat. 11765054), 100 U/mL penicillin-streptomycin (Invitrogen, cat. 15140122), and 2.5% Matrigel (Corning Inc., Corning, NY, cat. 354248) for the first three passages. […]
# [1] = second compound 0.1 µM, first compound 0.00949 µM
# [2] = second compound 0.1 µM, first compound 0.03 µM
# [3] = second compound 0.1 µM, first compound 0.0949 µM
# [4] = second compound 0.1 µM, first compound 0.3 µM
# [5] = second compound 0.316 µM, first compound 0.00949 µM
# [6] = second compound 0.316 µM, first compound 0.03 µM
# [7] = second compound 0.316 µM, first compound 0.0949 µM
# [8] = second compound 0.316 µM, first compound 0.3 µM
# [9] = second compound 1 µM, first compound 0.00949 µM
# [10] = second compound 1 µM, first compound 0.03 µM
# [11] = second compound 1 µM, first compound 0.0949 µM
# [12] = second compound 1 µM, first compound 0.3 µM
# [13] = second compound 3.16 µM, first compound 0.00949 µM
# [14] = second compound 3.16 µM, first compound 0.03 µM
# [15] = second compound 3.16 µM, first compound 0.0949 µM
# [16] = second compound 3.16 µM, first compound 0.3 µM
# [17] = second compound 10 µM, first compound 0.00949 µM
# [18] = second compound 10 µM, first compound 0.03 µM
# [19] = second compound 10 µM, first compound 0.0949 µM
# [20] = second compound 10 µM, first compound 0.3 µM
smiles,measurement,setting,value
COc1ccc([C@@H](O)c2cc(-c3ncnc4cc(N5CCOCC5)ccc34)c(F)cc2Cl)nn1 + NC1CCC(NC2CC2c2ccccc2)CC1,pIC50,second compound 0.1 µM,< 5.00
same,pIC50,second compound 0.316 µM,< 5.00
same,pIC50,second compound 1 µM,< 5.00
same,pIC50,second compound 3.16 µM,< 5.00
same,pIC50,second compound 10 µM,< 5.00
same,"viability, T/C","second compound 0.1 µM, first compound 0.0316 µM",102%
same,"viability, T/C","second compound 0.1 µM, first compound 0.1 µM",99.2%
same,"viability, T/C","second compound 0.1 µM, first compound 0.316 µM",88.9%
same,"viability, T/C","second compound 0.1 µM, first compound 1 µM",81.3%
same,"viability, T/C","second compound 0.1 µM, first compound 3.16 µM",72.7%
same,"viability, T/C","second compound 0.1 µM, first compound 10 µM",53.7%
same,"viability, T/C","second compound 0.316 µM, first compound 0.0316 µM",103%
same,"viability, T/C","second compound 0.316 µM, first compound 0.1 µM",102%
same,"viability, T/C","second compound 0.316 µM, first compound 0.316 µM",96.6%
same,"viability, T/C","second compound 0.316 µM, first compound 1 µM",85.5%
same,"viability, T/C","second compound 0.316 µM, first compound 3.16 µM",73.4%
same,"viability, T/C","second compound 0.316 µM, first compound 10 µM",54.6%
same,"viability, T/C","second compound 1 µM, first compound 0.0316 µM",95.7%
same,"viability, T/C","second compound 1 µM, first compound 0.1 µM",105%
same,"viability, T/C","second compound 1 µM, first compound 0.316 µM",93.4%
same,"viability, T/C","second compound 1 µM, first compound 1 µM",90.5%
same,"viability, T/C","second compound 1 µM, first compound 3.16 µM",76%
same,"viability, T/C","second compound 1 µM, first compound 10 µM",58%
same,"viability, T/C","second compound 3.16 µM, first compound 0.0316 µM",103%
same,"viability, T/C","second compound 3.16 µM, first compound 0.1 µM",103%
same,"viability, T/C","second compound 3.16 µM, first compound 0.316 µM",88.9%
same,"viability, T/C","second compound 3.16 µM, first compound 1 µM",88.9%
same,"viability, T/C","second compound 3.16 µM, first compound 3.16 µM",69.5%
same,"viability, T/C","second compound 3.16 µM, first compound 10 µM",54%
same,"viability, T/C","second compound 10 µM, first compound 0.0316 µM",102%
same,"viability, T/C","second compound 10 µM, first compound 0.1 µM",104%
same,"viability, T/C","second compound 10 µM, first compound 0.316 µM",89.8%
same,"viability, T/C","second compound 10 µM, first compound 1 µM",84.2%
same,"viability, T/C","second compound 10 µM, first compound 3.16 µM",73.3%
same,"viability, T/C","second compound 10 µM, first compound 10 µM",57%
COc1cc(C2c3cc4c(cc3C(OC3OC5COC(C)OC5C(O)C3O)C3COC(=O)C23)OCO4)cc(OC)c1O (stereo not given) + NC1CCC(NC2CC2c2ccccc2)CC1,pIC50,second compound 0.1 µM,< 5.52
same,pIC50,second compound 0.316 µM,< 5.52
same,pIC50,second compound 1 µM,< 5.52
same,pIC50,second compound 3.16 µM,< 5.52
same,pIC50,second compound 10 µM,< 5.52
same,"viability, T/C",[1],94.1%
same,"viability, T/C",[2],97.2%
same,"viability, T/C",[3],113%
same,"viability, T/C",[4],104%
same,"viability, T/C","second compound 0.1 µM, first compound 0.949 µM",87.1%
same,"viability, T/C","second compound 0.1 µM, first compound 3 µM",59.7%
same,"viability, T/C",[5],102%
same,"viability, T/C",[6],90.1%
same,"viability, T/C",[7],104%
same,"viability, T/C",[8],104%
same,"viability, T/C","second compound 0.316 µM, first compound 0.949 µM",94.7%
same,"viability, T/C","second compound 0.316 µM, first compound 3 µM",66.1%
same,"viability, T/C",[9],89.5%
same,"viability, T/C",[10],105%
same,"viability, T/C",[11],98.8%
same,"viability, T/C",[12],103%
same,"viability, T/C","second compound 1 µM, first compound 0.949 µM",93.4%
same,"viability, T/C","second compound 1 µM, first compound 3 µM",70.3%
same,"viability, T/C",[13],120%
same,"viability, T/C",[14],91.2%
same,"viability, T/C",[15],104%
same,"viability, T/C",[16],110%
same,"viability, T/C","second compound 3.16 µM, first compound 0.949 µM",89.6%
same,"viability, T/C","second compound 3.16 µM, first compound 3 µM",55.9%
same,"viability, T/C",[17],103%
same,"viability, T/C",[18],91.9%
same,"viability, T/C",[19],95.5%
same,"viability, T/C",[20],96.3%
same,"viability, T/C","second compound 10 µM, first compound 0.949 µM",81.6%
same,"viability, T/C","second compound 10 µM, first compound 3 µM",59.1%
Nc1ncn(C2CC(O)C(CO)S2)c(=O)n1 (stereo not given) + NC1CCC(NC2CC2c2ccccc2)CC1,pIC50,second compound 0.1 µM,< 6.52
same,pIC50,second compound 0.316 µM,< 6.52
same,pIC50,second compound 1 µM,< 6.52
same,pIC50,second compound 3.16 µM,< 6.52
same,pIC50,second compound 10 µM,< 6.52
same,"viability, T/C","second compound 0.1 µM, first compound 0.000949 µM",112%
same,"viability, T/C","second compound 0.1 µM, first compound 0.003 µM",104%
same,"viability, T/C",[1],121%
same,"viability, T/C",[2],118%
same,"viability, T/C",[3],122%
same,"viability, T/C",[4],118%
same,"viability, T/C","second compound 0.316 µM, first compound 0.000949 µM",103%
same,"viability, T/C","second compound 0.316 µM, first compound 0.003 µM",102%
same,"viability, T/C",[5],108%
same,"viability, T/C",[6],114%
same,"viability, T/C",[7],112%
same,"viability, T/C",[8],127%
same,"viability, T/C","second compound 1 µM, first compound 0.000949 µM",93.7%
same,"viability, T/C","second compound 1 µM, first compound 0.003 µM",105%
same,"viability, T/C",[9],113%
same,"viability, T/C",[10],109%
same,"viability, T/C",[11],109%
same,"viability, T/C",[12],110%
same,"viability, T/C","second compound 3.16 µM, first compound 0.000949 µM",96.4%
same,"viability, T/C","second compound 3.16 µM, first compound 0.003 µM",106%
same,"viability, T/C",[13],105%
same,"viability, T/C",[14],124%
same,"viability, T/C",[15],107%
same,"viability, T/C",[16],108%
same,"viability, T/C","second compound 10 µM, first compound 0.000949 µM",108%
same,"viability, T/C","second compound 10 µM, first compound 0.003 µM",105%
same,"viability, T/C",[17],113%
same,"viability, T/C",[18],118%
same,"viability, T/C",[19],111%
same,"viability, T/C",[20],106%
